In US8906865B2, “Treatment of inflammation and/or endotoxic shock” (ISIS Innovation Limited, priority 2007, dated 2014):

Experiments:
[1] = tested on: PMθ (peritoneal macrophages); experiment: Checkerboard analysis (chemotaxis versus chemokinesis); format: cell-based, mouse; details: for Chemotaxis versus chemokinesis (FIG. 13): C140 10-1000 pM, C15m 10-1000 pM
Experimental: Checkerboard analysis allows differentiation between chemotaxis and chemokinesis. Chemotaxis is indicated by migration toward a higher concentration of chemoattractant in the lower well. Chemokinesis refers to increased non-directional cell movement and occurs regardless of the concentration gradient present. Checkerboard analysis was performed by pre-incubating cells with C140 (10-500 pM) or C15m (10-1000 pM) and allowing them to migrate towards C140 (10-1000 pM) or C15m (10-1000 pM), respectively in the lower well to form a checkerboard of concentrations.
More specifically, PMθ were recruited following a 4 day peritoneal stimulation with BioGEL beads. Peritoneal cavities of male C57B16/J mice were lavaged with 5 ml PBS-2 mM EDTA. Cells were centrifuged and resuspended in RPMI supplemented with 0.5% BSA and 25 mM Hepes. Cells (0.5×10^6) were incubated with C140 or C15m for 30 mins before the chemotaxis assay and then allowed to migrate towards chemoattractant in the bottom well over 4 h. Filters were fixed in 4% formalin, then nuclei were stained with DAPI and visualised. Serum free media (SFM) was used as a negative control (−/−) and the CC chemokine RANTES as a positive control (25 ng/ml). The bar graphs in FIG. 13 show the mean Migration Index±SEM for each treatment group. Each bar represents at least triplicate wells and at least 3 pictures taken per treatment. p<0.001 *** relative to SFM-treated wells.

[2] = tested on: C57B16/J mice, zymosan-induced peritonitis; experiment: Zymosan-induced peritonitis in mice; format: in vivo, mouse; details: single i.p. dose; 4 h post-zymosan
[3] = tested on: PMθ stimulated with Zymosan; experiment: TNFα secretion by murine macrophages stimulated with Zymosan (ELISA); format: cell-based, mouse; details: 1 pM pre-treatment 1 h, Zymosan 15 h
Experimental: PMθ were cultured under various conditions: Untreated; Zymosan for 15 h; Chemerin (1 pM) pre-treatment for 1 h+Zymosan for 15 h. The bar graphs show mean expression of TNFα as determined by ELISA±SEM. Experiments were performed with triplicate determinations for each treatment. Representative data from three independent experiments employing cells from different donors are shown in FIG. 12. p<0.001 ***; p<0.01 ** relative to Zymosan-treated samples. Dexa refers to dexamethasone ([…]), nd refers to below the lower limit of detection (0.25 ng/ml).

[4] = tested on: PMΦ (peritoneal macrophages); experiment: Macrophage chemotaxis assay (modified Boyden chamber); format: cell-based, mouse; details: for Macrophage chemotactic activity: migration over 4 h, compared with C140 and RANTES 25 ng/ml
Experimental: PMθ (0.5×10^6) were allowed to migrate towards chemoattractant (Chemerin140 or Chemerin peptides) in the bottom well of a modified Boyden chamber over 4 h. Filters were fixed in 4% formalin, then migrated cell nuclei were stained with DAPI and visualised. Serum free media (SFM) were used as a negative control and the macrophage chemoattractant RANTES (25 ng/ml; 3 nM) as a positive control. The graphs indicate mean Migration Index (Chemoattractant % threshold area/SFM % threshold area)±SEM for each treatment group (n=5-6). p<0.001 ***; p<0.01 **; p<0.05 * relative to SFM treated wells.
PMθ were recruited following a 4 day peritoneal stimulation with BioGEL beads. Peritoneal cavities of male C57B16/J mice were lavaged with 5 ml PBS-2 mM EDTA. Cells were centrifuged and resuspended in RPMI supplemented with 0.5% BSA and 25 mM Hepes. Cells (0.5×10^6) were allowed to migrate towards chemoattractant (C140, C17m or C17m+C140) in the bottom well over 4 h. Filters were fixed in 4% formalin, then nuclei were stained with DAPI and visualised. Serum free media was used as a negative control (−/−). Cells were preincubated with Pertussis toxin (PTX) for 30 mins before the chemotaxis assay. The bar graphs in FIG. 11 show the mean Migration Index±SEM for each treatment group. Each bar represents at least triplicate wells and at least 3 pictures taken per treatment. p<0.001 ***; p<0.01 **; p<0.05 * relative to SFM treated wells unless otherwise stated.
Cell migration was assessed by use of transwell membranes (ChemoTX, 6-mm diameter, 8-μm pore size). Briefly, BioGEL-elicited cells were harvested and placed on transwell membranes (250 000 cells/membrane in RPMI supplemented with 25 mM Hepes and 0.1% bovine serum albumin. Cells were allowed to migrate toward Chemerin peptides (1 pM-100 nM) for 4 h. Signal transduction via G protein-coupled receptors was blocked by preincubating cells with pertussis toxin (PTX, 200 ng/ml, Sigma-Aldrich) for 30 mins before placing cells on transwell membranes. Migrated cells on the underside of membranes were fixed (3% formaldehyde) and stained with DAPI. Migration was quantified as total pixel count of DAPI stained nuclei under the confocal microscope (2 photos/membrane and a minimum of 3 replicate wells per treatment). Images were analyzed using Metamorph Offline software to determine percentage threshold areas (TA) occupied by migrated cells. Migration indices were obtained by dividing treatment TA by serum-free media TA. For secondary chemotaxis assays ChemoTx 3-mm diameter, 8-μm pore membranes were used with 50 000 cells/membrane.

[5] = tested on: Murine peritoneal macrophages (PMΦ); experiment: Macrophage cytokine mRNA levels by qRT-PCR (IL-10, TGFβ), normalized to HPRT; format: cell-based, mouse; details: chemerin
Experimental: FIGS. 1A-F—FIGS. 1A and 1B illustrate that Chemerin140 suppresses production of inflammatory mediators by macrophages in a proteolysis dependent fashion. Supernatants from macrophages or activated macrophages (treated with 100 ng/ml LPS and 20 ng/ml interferon gamma were assayed for cytokine expression using Luminex and ELISA assays. Cells were incubated in the presence or absence of recombinant murine chemerin or dexamethasone at the indicated doses and in the absence or presence of the protease inhibitor leupeptin ([…]). FIG. 1C—Macrophage cytokine mRNA levels were quantitated by qRT-PCR (IL-10, TGFβ) and normalized to HPRT. FIG. 1D—PMΦ were pre-treated with chemerin (0.1-1 pM)±pertussis toxin (PTX; 200 ng/ml) prior to LPS/IFNγ-challenge. FIG. 1E—PMΦ were pre-treated with chemerin (1 pM) for 1 h±PTX and then stimulated with LPS/IFNγ for 4 h, 8 h or 15 h. ***, p<0.001; **, p<0.01; *, p<0.05 relative to LPS/IFNγ-treated samples. ###, p<0.001; ##, p<0.01; #, p<0.05 relative to chemerin-treated samples. […]
Total RNA was extracted using Qiagen RNeasy kits, reverse transcribed and subjected to qRT-PCR using the Sybr-Green method. Data was analysed using the 2-ΔΔCT method (Livak, K. J. & Schmittgen T. D. (2001), Methods 25:402-408).

Molecule | Induction of macrophage chemotaxis relative to C140 [1] | Chemotaxis versus chemokinesis (FIG. 13) [1] | Lowest dose with significant anti-inflammatory effects (FIG. 14B) [2] [pg/mouse] | Suppression of Zymosan-induced TNF expression (FIG. 12) [3] [%] | Macrophage chemotactic activity [4] | Concentration of maximal macrophage migration ([4]; tested 1 pM-100 nM) [pM] | Effect of co-administration on C140-induced macrophage migration (FIG. 11) ([4]; C17m + C140 in bottom well, 4 h) | Induction of IL-10 mRNA expression (FIG. 1C) [5] [%] | Induction of TGFβ mRNA expression (FIG. 1C) [5] [%]
AGEDPHGYFLPGQFA (listed as Mus sp.) [C15] | much weaker inducer of macrophage chemotaxis | elicit true chemotaxis rather than chemokinesis | 4 | 21 | little chemotactic activity | 100 | – | – | –
AGEDPHGYFLPGQFAFS (listed as Mus sp.) [C17m] | – | – | – | 30 | no chemotactic activity | – | did not appear to affect macrophage migration to C140 | – | –
Chemerin: 140 amino acid mouse Chemerin protein of Sequence ID no: 34 (protein, listed as Mus sp.) TVGTEPELSETQRRSLQVALEEFHKHPPVQLAFQEIGVDRAEEVLFSAGTFVRLEFKLQQTNCPKKDWKKPECTIKPNGRRRKCLACIKMDPKGKILGRIVHCPILKQGPQDPQELQCIKIAQAGEDPHGYFLPGQFAFS | – | elicit true chemotaxis rather than chemokinesis | – | – | – | – | – | 89 | 54
